# Columns and labels:
# [1] = amount of azithromycin dihydrate dissolved in coating solution, indicated by pH; type: physicochemical; conditions: aqueous hydroxypropyl cellulose coating solution, pH 9
# Protocol: Multiparticulates were made by a spray-coating process using the following procedure. First, 30 g of the low reactivity carrier hydroxypropyl cellulose containing virtually no acid or ester substituents (KLUCEL EF from Aqualon, Inc. of Wilmington, Del.) were dissolved into 800 g of distilled water. To this solution was then added 119.6 g of crystalline azithromycin dihydrate having a degree of crystallinity of >99%.
# [2] = distilled water at pH 6.9; cited from earlier work
smiles,measurement,setting,value
"CC[C@H]1OC(=O)[C@H](C)[C@@H](O[C@H]2C[C@@](C)(OC)[C@@H](O)[C@H](C)O2)[C@H](C)[C@@H](O[C@@H]2O[C@H](C)C[C@H](N(C)C)[C@H]2O)[C@](C)(O)C[C@@H](C)CN(C)[C@H](C)[C@@H](O)[C@]1(C)O [azithromycin dihydrate, 9a-aza-9a-methyl-9-deoxo-9a-homoerythromycin A]",amount of azithromycin dihydrate dissolved in the solution,[1],less than 1 mg/mL
same,solubility,[2],1100 µg/mL
